PubChem BioAssay AID248 (DTP/NCI, 2004)
Where “and” joins values, the source holds several entries; their conditions need not be identical. Identical values can stand only once. Inconclusive results and toxic doses are left out.

System: L1210 leukemia ip in BDF1 mice, survival T/C
Assay: NCI In Vivo Anticancer Drug Screen. Data for tumor model L1210 Leukemia (intraperitoneal) in B6D2F1 (BDF1) mice
Details: endpoint: mean survival time, higher = longer survival
How it was run: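 Ratio derived from survival: compound-dosed mice over vehicle-dosed mice, all bearing a transplantable tumor.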

[1] = dose: 100.0 mg/kg/injection, schedule: Q04DX003 (ip), vehicle: saline
[2] = dose: 200.0 mg/kg/injection, schedule: Q04DX003 (ip), vehicle: saline
[3] = dose: 400.0 mg/kg/injection, schedule: Q04DX003 (ip), vehicle: saline
[4] = dose: 100.0 mg/kg/injection, schedule: Q01DX001 (ip), vehicle: saline
[5] = dose: 200.0 mg/kg/injection, schedule: Q01DX001 (ip), vehicle: saline
[6] = dose: 400.0 mg/kg/injection, schedule: Q01DX001 (ip), vehicle: saline
[7] = dose: 100.0 mg/kg/injection, schedule: Q04DX003 (ip), vehicle: acetone
[8] = dose: 200.0 mg/kg/injection, schedule: Q04DX003 (ip), vehicle: acetone
[9] = dose: 400.0 mg/kg/injection, schedule: Q04DX003 (ip), vehicle: acetone
[10] = dose: 100.0 mg/kg/injection, schedule: Q01DX001 (ip), vehicle: carboxymethylcellulose (CMC)
[11] = dose: 200.0 mg/kg/injection, schedule: Q01DX001 (ip), vehicle: carboxymethylcellulose (CMC)
[12] = dose: 400.0 mg/kg/injection, schedule: Q01DX001 (ip), vehicle: carboxymethylcellulose (CMC)
[13] = dose: 100.0 mg/kg/injection, schedule: Q01DX009 (ip), vehicle: Klucel (hydroxypropylcellulose) (HPC)
[14] = dose: 100.0 mg/kg/injection, schedule: Q04DX003 (ip), vehicle: Klucel (hydroxypropylcellulose) (HPC)
[15] = dose: 200.0 mg/kg/injection, schedule: Q04DX003 (ip), vehicle: Klucel (hydroxypropylcellulose) (HPC)
[16] = dose: 400.0 mg/kg/injection, schedule: Q04DX003 (ip), vehicle: Klucel (hydroxypropylcellulose) (HPC)
[17] = dose: 100.0 mg/kg/injection, schedule: Q01DX009 (ip), vehicle: saline
[18] = dose: 100.0 mg/kg/injection, schedule: Q01DX009 (ip), vehicle: saline with Tween-80
[19] = dose: 200.0 mg/kg/injection, schedule: Q01DX009 (ip), vehicle: saline with Tween-80
[20] = dose: 400.0 mg/kg/injection, schedule: Q01DX009 (ip), vehicle: saline with Tween-80

CCOC(=O)C(=O)Nc1ccccc1-c1ccccc1
T/C [1]: 102 % of control | T/C [2]: 98 % of control | T/C [3]: 101 % of control

O=[N+]([O-])c1ccc(Oc2ccc(F)cc2)c([N+](=O)[O-])c1
T/C (dose: 50.0 mg/kg/injection, schedule: Q01DX001 (ip), vehicle: saline): 103 % of control | T/C [4]: 103 % of control | T/C [5]: 97 % of control | T/C [6]: 105 % of control

COc1ccc(/C2=C/CCCCCC2)cc1
T/C (dose: 50.0 mg/kg/injection, schedule: Q01DX009 (ip), vehicle: acetone): 87 % of control | T/C (dose: 100.0 mg/kg/injection, schedule: Q01DX009 (ip), vehicle: acetone): 92 % of control | T/C [7]: 96 % of control | T/C (dose: 200.0 mg/kg/injection, schedule: Q01DX009 (ip), vehicle: acetone): 95 % of control | T/C [8]: 103 % of control | T/C [9]: 101 % of control

N#CC(C#N)=C1SCS1
T/C (dose: 6.25 mg/kg/injection, schedule: Q04DX002 (ip), vehicle: saline with Tween-80): 103 % of control | T/C (dose: 12.5 mg/kg/injection, schedule: Q04DX002 (ip), vehicle: saline with Tween-80): 111 % of control | T/C (dose: 25.0 mg/kg/injection, schedule: Q04DX002 (ip), vehicle: saline with Tween-80): 114 % of control

O=C(CCC(=O)Nc1ccccc1)Nc1ccccc1
T/C [10]: 96 % of control | T/C [11]: 102 % of control | T/C [12]: 102 % of control

Cc1ccc(NC(=O)Nc2ccc(CNC(=O)COc3ccc(Cl)cc3C(=O)O)cc2)cc1S(=O)(=O)F
T/C [4]: 100 % of control | T/C [5]: 94 % of control | T/C [6]: 94 % of control

COc1ccc2c(c1)CN(S(=O)(=O)c1ccc(C)cc1)C=CC2=O
T/C [13]: 96 % of control | T/C [14]: 90 % of control | T/C (dose: 200.0 mg/kg/injection, schedule: Q01DX009 (ip), vehicle: Klucel (hydroxypropylcellulose) (HPC)): 104 % of control | T/C [15]: 96 % of control | T/C (dose: 400.0 mg/kg/injection, schedule: Q01DX009 (ip), vehicle: Klucel (hydroxypropylcellulose) (HPC)): 96 % of control | T/C [16]: 98 % of control

Cc1cc2nc3ccc(=[N+](C)C)cc-3sc2cc1N
T/C (dose: 3.12 mg/kg/injection, schedule: Q01DX009 (ip), vehicle: saline): 94 % of control | T/C (dose: 6.25 mg/kg/injection, schedule: Q01DX009 (ip), vehicle: saline): 100 % of control | T/C (dose: 12.5 mg/kg/injection, schedule: Q01DX009 (ip), vehicle: saline): 117 % of control | T/C (dose: 25.0 mg/kg/injection, schedule: Q01DX009 (ip), vehicle: saline): 101 % of control | T/C (dose: 25.0 mg/kg/injection, schedule: Q04DX003 (ip), vehicle: saline): 98 % of control | T/C (dose: 50.0 mg/kg/injection, schedule: Q01DX009 (ip), vehicle: saline): 100 % of control | T/C (dose: 50.0 mg/kg/injection, schedule: Q04DX003 (ip), vehicle: saline): 106 % of control

C=CCNc1ccnc(SC)n1
T/C (dose: 100.0 mg/kg/injection, schedule: Q01DX001 (ip), vehicle: gum acacia): 94 % of control | T/C (dose: 200.0 mg/kg/injection, schedule: Q01DX001 (ip), vehicle: gum acacia): 103 % of control

CC(=O)NC(C)C(=O)O (stereo not drawn)
T/C [4]: 90 % of control and 92 % of control | T/C [17]: 100 % of control and 111 % of control and 103 % of control | T/C (dose: 100.0 mg/kg/injection, schedule: Q04DX002 (ip), vehicle: saline): 96 % of control and 111 % of control and 92 % of control | T/C [1]: 89 % of control and 103 % of control | T/C [5]: 106 % of control and 93 % of control | T/C (dose: 200.0 mg/kg/injection, schedule: Q01DX009 (ip), vehicle: saline): 93 % of control and 92 % of control and 97 % of control | T/C (dose: 200.0 mg/kg/injection, schedule: Q04DX002 (ip), vehicle: saline): 105 % of control and 93 % of control and 94 % of control | T/C [2]: 90 % of control and 98 % of control | T/C [6]: 94 % of control and 93 % of control | T/C (dose: 400.0 mg/kg/injection, schedule: Q01DX009 (ip), vehicle: saline): 90 % of control and 92 % of control and 100 % of control | T/C (dose: 400.0 mg/kg/injection, schedule: Q04DX002 (ip), vehicle: saline): 96 % of control and 94 % of control and 101 % of control | T/C [3]: 94 % of control and 103 % of control

COC(=O)c1ccc(Cl)cc1OCC(=O)Nc1ccccc1
T/C (dose: 100.0 mg/kg/injection, schedule: Q01DX001 (ip), vehicle: Klucel (hydroxypropylcellulose) (HPC)): 97 % of control | T/C (dose: 200.0 mg/kg/injection, schedule: Q01DX001 (ip), vehicle: Klucel (hydroxypropylcellulose) (HPC)): 103 % of control | T/C (dose: 400.0 mg/kg/injection, schedule: Q01DX001 (ip), vehicle: Klucel (hydroxypropylcellulose) (HPC)): 93 % of control

Oc1ccc2ccccc2c1Cc1ccccc1
T/C [18]: 99 % of control | T/C [19]: 89 % of control | T/C [20]: 92 % of control

O=C(CCl)Nc1ccc2c(c1)-n1cccc1C2=O
T/C (dose: 25.0 mg/kg/injection, schedule: Q01DX009 (ip), vehicle: Klucel (hydroxypropylcellulose) (HPC)): 89 % of control | T/C (dose: 50.0 mg/kg/injection, schedule: Q01DX009 (ip), vehicle: Klucel (hydroxypropylcellulose) (HPC)): 91 % of control | T/C [13]: 86 % of control | T/C [14]: 93 % of control | T/C [15]: 96 % of control | T/C [16]: 100 % of control

O=C1c2ccccc2-c2cc(S)ccc21
T/C [10]: 109 % of control | T/C [11]: 104 % of control | T/C [12]: 101 % of control

Cc1cc(=O)[nH]n1-c1ccc([N+](=O)[O-])cc1
T/C [14]: 94 % of control | T/C [15]: 97 % of control | T/C [16]: 89 % of control

COc1cc(Br)c(CC(=O)O)cc1OC
T/C [7]: 96 % of control | T/C [8]: 95 % of control | T/C [9]: 93 % of control

CCCCCCCCCCC(=O)OCC1OC2C(Oc3nc(=N)ccn32)C1OC(=O)CCCCCCCCCC (stereo not drawn)
T/C (dose: 25.0 mg/kg/injection, schedule: Q01DX009 (ip), vehicle: water): 166 % of control | T/C (dose: 50.0 mg/kg/injection, schedule: Q01DX009 (ip), vehicle: water): 210 % of control

COC(=O)C(O)(C#CC(C)C)c1ccccc1 (stereo not drawn)
T/C (dose: 100.0 mg/kg/injection, schedule: Q01DX001 (ip), vehicle: other): 107 % of control | T/C (dose: 200.0 mg/kg/injection, schedule: Q01DX001 (ip), vehicle: other): 100 % of control | T/C (dose: 400.0 mg/kg/injection, schedule: Q01DX001 (ip), vehicle: other): 94 % of control

CCCCCCCCC1SC1CCCCCCCC(=O)OCCOCCOCC (stereo not drawn)
T/C [18]: 95 % of control | T/C [19]: 92 % of control | T/C [20]: 95 % of control

CN(C)Cc1c[nH]c2ncccc12
T/C (dose: 6.25 mg/kg/injection, schedule: Q04DX003 (ip), vehicle: saline with Tween-80): 98 % of control | T/C (dose: 12.5 mg/kg/injection, schedule: Q04DX003 (ip), vehicle: saline with Tween-80): 96 % of control | T/C (dose: 25.0 mg/kg/injection, schedule: Q04DX003 (ip), vehicle: saline with Tween-80): 102 % of control

CC(Cl)(Cl)CC(O)(C(F)(F)F)C(F)(F)F
T/C (dose: 50.0 mg/kg/injection, schedule: Q04DX003 (ip), vehicle: saline with Tween-80): 95 % of control | T/C (dose: 100.0 mg/kg/injection, schedule: Q04DX003 (ip), vehicle: saline with Tween-80): 105 % of control | T/C (dose: 200.0 mg/kg/injection, schedule: Q04DX003 (ip), vehicle: saline with Tween-80): 91 % of control

CC(=O)C12OC1CC1C3CCC4=CC(=O)CCC4(C)C3CC(=O)C12C (stereo not drawn)
T/C (dose: 75.0 mg/kg/injection, schedule: Q01DX009 (ip), vehicle: carboxymethylcellulose (CMC)): 94 % of control | T/C (dose: 150.0 mg/kg/injection, schedule: Q01DX009 (ip), vehicle: carboxymethylcellulose (CMC)): 107 % of control | T/C (dose: 300.0 mg/kg/injection, schedule: Q01DX009 (ip), vehicle: carboxymethylcellulose (CMC)): 105 % of control

O=C(O)/C=C/S(=O)(=O)Cc1ccccc1
T/C [14]: 98 % of control | T/C [15]: 100 % of control

C1CC[N+]2=C(C1)OCCC2
T/C (dose: 30.0 mg/kg/injection, schedule: Q01DX009 (ip), vehicle: saline): 93 % of control | T/C (dose: 44.0 mg/kg/injection, schedule: Q01DX009 (ip), vehicle: saline): 100 % of control | T/C (dose: 60.0 mg/kg/injection, schedule: Q01DX009 (ip), vehicle: saline): 106 % of control | T/C (dose: 66.0 mg/kg/injection, schedule: Q01DX009 (ip), vehicle: saline): 103 % of control | T/C [17]: 102 % of control and 103 % of control | T/C [1]: 101 % of control | T/C (dose: 150.0 mg/kg/injection, schedule: Q01DX009 (ip), vehicle: saline): 100 % of control and 104 % of control | T/C [2]: 101 % of control | T/C [3]: 91 % of control
